System: gastric acid secreted under stimulation with histamine
Assay: Gastric acid secretion inhibition action, histamine-stimulated, acute Fistula method
Assay type: in vivo, Sprague-Dawley (SD) rats
Settings: SD rats, administered in the duodenum, histamine 8 mg/kg/h, total acid discharge at 3, 4 and 5 hours, Probit method; for ED50: Rattus norvegicus
Protocol: (Gastric Acid Secretion Inhibition Action)
(1) Test Animals Employed were Sprague-Dawley (SD) Rats (7 Weeks Old, Male) Purchased from Charles River Japan, Inc. Before the Test, the Rats Were Fed for 5 Days or More.
Each test drug was suspended in, or dissolved in, 0.5% sodium carboxymethylcellulose solution, whereby a suspension or solution was prepared so as to attain 2.5 mL/kg.
(2) Measurement of Gastric Acid Secretion
The amount of gastric acid secreted under stimulation with histamine was measured on the rats fasted for 18 hours by use of the acute Fistula method as described by Hiramatsu et al. (Dig. Dis. Sci.,39, 689-697(1994)). Briefly, each rat was etherized lightly, and then a winged tubular needle filled with 3.8% citric acid solution was indwelled in the tail vein of the rat. The abdomen of the rat was opened, and the pyloric part of the stomach was ligated. Subsequently, a small hole was made in the duodenum, and the abdomen of the rat was closed with a feeding tube filled with saline indwelled. The inside of the stomach was washed with saline, a polyethylene-made Fistula tube (inner diameter: 4 mm) was set in the anterior stomach, and the cut portion of the anterior stomach was ligated and secured. The stomach and the duodenum were returned to the abdominal cavity, with the Fistula tube and the feeding tube exposed outside. The rat was placed in a Ballman cage II. Histamine was continuously administered through the winged injection needle which had been indwelled in the tail vein in advance (8 mg/kg/h, 1.38 mL/h). 15 Minutes thereafter, gastric juice of the rat was collected. Subsequently, collection of gastric juice was performed every one hour. Each time, the amount of the collected gastric juice was recorded, followed by titration with NaOH (0.1 mol/L) up to the end point pH 7.0. From the volume consumed for titration, acidity was calculated. The acid discharge amount was calculated as a product of the amount of the gastric juice and the acidity. Before starting the test, the rats were grouped so that the intra-group total amount of the gastric juice samples initially collected was the same between groups. Thereafter, each test drug was administered (2.5 mL/kg) in the duodenum through a feeding tube which had been attached to the duodenum in advance. To each rat of a control group, 0.5% Na-CMC solution was administered.
(3) Analysis of the Results
The data as obtained above are shown by way of mean±standard error. Total amount of acid discharge was obtained through summation of the amounts of acid discharge at three points in time; i.e., 3, 4 and 5 hours after initial collection of gastric juice. Percent inhibition of each group was computed from the total acid discharge amount of the control group and that of each group. On the basis of the percent inhibition calculated for each group, 50% effective dose (ED50) was computed by use of the Probit method.

Row | Structure (SMILES) | ED50 | Gastric-acid secretion inhibition action [ED50 (mg/kg)]
1 | COc1c(OCCOCC(F)(F)F)ccnc1C[S+]([O-])c1nc2ccccc2[nH]1 (single isomer, unassigned; (+)) [Example 3(2), (+)-2-{3-methoxy-4-[2-(2,2,2-trifluoroethoxy)ethoxy]pyridin-2-yl-methylsulfinyl}-1H-benzimidazole] | 2.2 mg/kg | –
2 | COc1c(OCCCC(F)(F)F)ccnc1C[S+]([O-])c1nc2ccccc2[nH]1 (single isomer, unassigned; (-)) [Example 6(1), (−)-2-[3-methoxy-4-(4,4,4-trifluorobutoxy)pyridin-2-yl-methanesulfinyl]-1H-benzimidazole] | – | 1.4 mg/kg
3 | [O-][S+](Cc1cc(OCCCC(F)(F)F)ccn1)c1nc2ccccc2[nH]1 (single isomer, unassigned; (-)) [Example 10(2), (−)-2-[4-(4,4,4-trifluorobutoxy)pyridin-2-yl-methanesulfinyl]-1H-benzimidazole] | 0.97 mg/kg | –
4 | [O-][S+](Cc1cc(OCCOCC(F)(F)F)ccn1)c1nc2ccccc2[nH]1 (single isomer, unassigned; (-)) [Example 13(3), (−)-2-{4-[2-(2,2,2-trifluoroethoxy)ethoxy]pyridin-2-yl-methanesulfinyl}-1H-benzimidazole] | 0.59 mg/kg | –
5 | COc1c(OCCCC(F)(F)F)ccnc1C[S+]([O-])c1nc2ccccc2[nH]1 (stereo not drawn) [Example 1(2), 2-[3-methoxy-4-(4,4,4-trifluorobutoxy)pyridin-2-yl-methylsulfinyl]-1H-benzimidazole] | 1.3 mg/kg | –
6 | COc1c(OCCOCC(F)(F)F)ccnc1C[S+]([O-])c1nc2ccccc2[nH]1 (stereo not drawn) [Example 2(2), 2-{3-methoxy-4-[2-(2,2,2-trifluoroethoxy)ethoxy]pyridin-2-yl-methylsulfinyl}-1H-benzimidazole] | 1.9 mg/kg | –
7 | [O-][S+](Cc1cc(OCCCC(F)(F)F)ccn1)c1nc2ccccc2[nH]1 (stereo not drawn) [Example 9(3), 2-[4-(4,4,4-trifluorobutoxy)pyridin-2-yl-methanesulfinyl]-1H-benzimidazole] | 0.32 mg/kg | –
8 | COc1ccc2nc([S@@+]([O-])Cc3ncc(C)c(OC)c3C)[nH]c2c1 [esomeprazole, reference compound] | 2.9 mg/kg | –
9 | Cc1c(OCC(F)(F)F)ccnc1C[S+]([O-])c1nc2ccccc2[nH]1 (stereo not drawn) [lansoprazole, reference compound] | 1.1 mg/kg | –
10 | COc1ccc2[nH]c([S+]([O-])Cc3ncc(C)c(OC)c3C)nc2c1 (stereo not drawn) [omeprazole, reference compound] | 3.6 mg/kg | –
11 | COc1ccnc(C[S+]([O-])c2nc3ccc(OC(F)F)cc3[nH]2)c1OC (stereo not drawn) [pantoprazole, reference compound] | 0.34 mg/kg | –
12 | COCCCOc1ccnc(C[S+]([O-])c2nc3ccccc3[nH]2)c1C (stereo not drawn) [rabeprazole, reference compound] | 2.5 mg/kg | –

Reference: US6884810B2, “Benzimidazole derivatives” (Zeria Pharmaceutical Co., Ltd., priority 2001, dated 2005)
